Patent US10376453B1, “Composition for promoting hair growth containing novel pantetheine derivative” (KOREA INSTITUTE OF OCEAN SCIENCE AND TECHNOLOGY, priority 2016, dated 2019)

Test system: dermal papilla cells
Experiment: Measurement of viability of dermal papilla cells (MTT); promotion of growth of dermal papilla cells
Type: cell-based, human
Details: 24 hours culture, MTT absorbance at 570 nm, Control = 100
Description: For cell culture, Dulbecco's Modified Eagle Medium (DMEM), fetal bovine serum (FBS), 0.25% trypsin-1 mM EDTA, and penicillin-streptomycin were used, and dermal papilla cells were cultured at 37° C. in a humidified 5% CO2. The medium was replaced twice a week, and the cultured dermal papilla cells were washed with PBS within 6-7 days. Next, the attached cells were separated by 0.05% trypsin-0.02% EDTA, centrifuged, and then subcultured for experiments. Specifically, 200 μl of dermal papilla cells were dispensed into each well of a 96-well plate at a density of 1×10^4 cells/well, and cultured under the conditions of 37° C. and 5% CO2 for 18 hours so as to be attached to each well. After 18 hours, the medium was removed, and 200 μl of samples was added to each well having the cells attached thereto, followed by culture for 24 hours. After the medium was removed, 100 μl of a solution of 3-(4,5-dimethylthiazol)-2,5-diphenyltetrazoliumbromide(MTT), prepared by dissolving MTT in PBS at a concentration of 500 μg/ml, was added to the cultured cells, followed by culture for 4 hours under the same conditions as described above. The formed formazan crystal was dissolved in DMSO, and the absorbance at 570 nm was measured using an ELISA reader. The measured OD values ranging from 0.00 to 3.50 were used for the experimental results. The sample for treatment of the cells was used at concentrations of 0.5, 5 and 50 μM.

| Molecule | Effect on the growth of dermal papilla cells (0.5 μM sample) | Effect on the growth of dermal papilla cells (5 μM sample) | Effect on the growth of dermal papilla cells (50 μM sample) |
| --- | --- | --- | --- |
| CCC(C)C(=O)SCCNC(=O)CCNC(=O)[C@H](O)C(C)(C)CO (stereo partly drawn) [S1, 2-methylbutyryl-D-pantetheine] | 113.31 | 129.65 | 139.19 |
| CC(C)CC(=O)SCCNC(=O)CCNC(=O)[C@H](O)C(C)(C)CO [S2, 3-methylbutyryl-D-pantetheine] | 121.04 | 114.65 | 121.28 |
| C=CCCC(=O)SCCNC(=O)CCNC(=O)[C@H](O)C(C)(C)CO [S4, 4-pentenoyl-D-pantetheine] | 116.88 | 122.89 | 111.97 |
| C=CCCCCCCCCC(=O)SCCNC(=O)CCNC(=O)[C@H](O)C(C)(C)CO [S5, 10-undecenoyl-D-pantetheine] | 111.24 | 93.01 | 101.62 |
| CC(C)(CO)[C@@H](O)C(=O)NCCC(=O)NCCSC(=O)c1ccc(O)cc1O [S7, 2,4-dihydroxybenzoyl-D-pantetheine] | 95.73 | 97.32 | 93.12 |
| Nc1cc(N2CCCCC2)nc(N)[n+]1[O-] [minoxidil, reference compound] | 146.66 | 146.52 | 140.29 |
| cinnamoyl-D-pantetheine [S3] | 119.77 | 122.38 | 133.33 |
| isobutyl formate-D-pantetheine [S6] | 130.57 | 112.94 | 135.95 |
